Laboratory results from ChEMBL document CHEMBL1949628, “Discovery of aminopiperidine-based Smac mimetics as IAP antagonists” (Bioorg Med Chem Lett, 2012).

Assays:
[1] = molecular target: T1, Baculoviral IAP repeat-containing protein 2 (Homo sapiens, UniProt Q13490); test: Antagonist activity at cIAP1 in human MDA-MB-231 cells assessed as cIAP1 degradation after 1 hr by ELISA; type: functional, cell-based
MDA-MB-231 [2] = test: Antiproliferative activity against human MDA-MB-231 cells after 48 hrs by alamar blue assay; type: functional; settings: MDA-MB-231, 48 h
[3] = molecular target: T2, E3 ubiquitin-protein ligase XIAP (Homo sapiens, UniProt P98170); test: Antagonist activity at GST-tagged BIR3 domain of XIAP using AbuRPFK-5FAM after 20 mins by fluorescence polarization assay; type: functional
[4] = molecular target: T1, Baculoviral IAP repeat-containing protein 2; test: Antagonist activity at GST-tagged BIR3 domain of cIAP1 using AbuRPFK-5FAM after 20 mins by fluorescence polarization assay; type: functional
[5] = Lipophilicity, log D of the compound; type: physicochemical; settings: octanol/water
[6] = molecular target: T2, E3 ubiquitin-protein ligase XIAP; test: Binding affinity to GST-tagged BIR3 domain of XIAP by isothermal titration calorimetry
MDA-MB-231 [7] = test: Antiproliferative activity against human MDA-MB-231 cells assessed as cell growth at 0.0155 uM after 48 hrs by alamar blue assay relative to control; type: functional; settings: MDA-MB-231, 48 h, read-out: Activity
MDA-MB-231 [8] = test: Antiproliferative activity against human MDA-MB-231 cells assessed as cell growth at 0.0465 uM after 48 hrs by alamar blue assay relative to control; type: functional; settings: MDA-MB-231, 48 h, read-out: Activity
MDA-MB-231 [9] = test: Antiproliferative activity against human MDA-MB-231 cells assessed as cell growth at 1.25556 uM after 48 hrs by alamar blue assay relative to control; type: functional; settings: MDA-MB-231, 48 h, read-out: Activity
MDA-MB-231 [10] = test: Antiproliferative activity against human MDA-MB-231 cells assessed as cell growth at 11.3 uM after 48 hrs by alamar blue assay relative to control; type: functional; settings: MDA-MB-231, 48 h, read-out: Activity
MDA-MB-231 [11] = test: Antiproliferative activity against human MDA-MB-231 cells assessed as cell growth at 0.00172 uM after 48 hrs by alamar blue assay relative to control; type: functional; settings: MDA-MB-231, 48 h, read-out: Activity
MDA-MB-231 [12] = test: Antiproliferative activity against human MDA-MB-231 cells assessed as cell growth at 0.13951 uM after 48 hrs by alamar blue assay relative to control; type: functional; settings: MDA-MB-231, 48 h, read-out: Activity
MDA-MB-231 [13] = test: Antiproliferative activity against human MDA-MB-231 cells assessed as cell growth at 0.00517 uM after 48 hrs by alamar blue assay relative to control; type: functional; settings: MDA-MB-231, 48 h, read-out: Activity
MDA-MB-231 [14] = test: Antiproliferative activity against human MDA-MB-231 cells assessed as cell growth at 0.41852 uM after 48 hrs by alamar blue assay relative to control; type: functional; settings: MDA-MB-231, 48 h, read-out: Activity
MDA-MB-231 [15] = test: Antiproliferative activity against human MDA-MB-231 cells assessed as cell growth at 3.76667 uM after 48 hrs by alamar blue assay relative to control; type: functional; settings: MDA-MB-231, 48 h, read-out: Activity

SMILES | EC50 [1] [nM] | IC50 [4] [nM] | other results
CN[C@@H](C)C(=O)N[C@H](C(=O)N1CC[C@H]2CCN(CCc3ccccc3)C[C@H]21)C1CCCCC1 |  |  | logD [5]: 2.61
CN[C@@H](C)C(=O)N[C@H](C(=O)N[C@H]1CCN(Cc2ccccc2)C1)C1CCCCC1 |  | 3380 | 
CN[C@@H](C)C(=O)N[C@H](C(=O)N[C@H]1CCN(C(=O)c2ccccc2)C1)C1CCCCC1 |  | 5020 | 
CN[C@@H](C)C(=O)N[C@H](C(=O)N[C@H]1CCN(C(=O)Cc2ccccc2)C1)C1CCCCC1 |  | 780 | 
CN[C@@H](C)C(=O)N[C@H](C(=O)N[C@H]1CCN(C(=O)OCc2ccccc2)C1)C1CCCCC1 |  | 740 | 
CN[C@@H](C)C(=O)N[C@H](C(=O)N[C@H]1CCCN(Cc2ccccc2)C1)C1CCCCC1 |  | 1690 | 
CN[C@@H](C)C(=O)N[C@H](C(=O)N[C@H]1CCCN(C(=O)c2ccccc2)C1)C1CCCCC1 |  | 3360 | 
CN[C@@H](C)C(=O)N[C@H](C(=O)N[C@H]1CCCN(C(=O)Cc2ccccc2)C1)C1CCCCC1 |  | 130 | 
CN[C@@H](C)C(=O)N[C@H](C(=O)N[C@H]1CCCN(C(=O)OCc2ccccc2)C1)C1CCCCC1 |  | 450 | 
CN[C@@H](C)C(=O)N[C@H](C(=O)N[C@H]1CCCCN(Cc2ccccc2)C1)C1CCCCC1 |  | 270 | 
CN[C@@H](C)C(=O)N[C@H](C(=O)N(C)[C@H]1CCCN(CCc2ccccc2)C1)C1CCCCC1 |  | 44 | 
CN[C@@H](C)C(=O)N[C@H](C(=O)N[C@H]1CCCN(CC(c2ccccc2)c2ccccc2)C1)C1CCCCC1 |  | 62 | 
CN[C@@H](C)C(=O)N[C@H](C(=O)N[C@H]1CCCN([C@@H]2CCCc3ccccc32)C1)C1CCCCC1 |  | 1990 | 
CN[C@@H](C)C(=O)N[C@H](C(=O)N[C@H]1CCCN(CCc2ccccc2F)C1)C1CCCCC1 | 104 | 33 | 
CN[C@@H](C)C(=O)N[C@H](C(=O)N[C@H]1CCCN(CCc2cccc(F)c2)C1)C1CCCCC1 | 279 | 68 | 
CN[C@@H](C)C(=O)N[C@H](C(=O)N[C@H]1CCCN(CCc2ccc(F)cc2)C1)C1CCCCC1 | 58 | 18 | 
CN[C@@H](C)C(=O)N[C@H](C(=O)N[C@H]1CCCN(CCc2c[nH]c3ccccc23)C1)C(C)(C)C | 185 | 115 | 
CN[C@@H](C)C(=O)N[C@H](C(=O)N[C@H]1C[C@@H]2CC[C@H]1N(CCc1ccccc1)C2)C1CCCCC1 | 5 | 4 | Kd [6]: 900 nM; growth at 0.0155 µM (MDA-MB-231 [7]): 84%; growth at 0.0465 µM (MDA-MB-231 [8]): 73.5%; growth at 1.25556 µM (MDA-MB-231 [9]): -12.2%; growth at 11.3 µM (MDA-MB-231 [10]): 8.61%; growth at 0.00172 µM (MDA-MB-231 [11]): 97%; GI50 (MDA-MB-231 [2]): 100 nM; growth at 0.13951 µM (MDA-MB-231 [12]): 37.5%; logD [5]: 1.64; IC50 [3]: 365 nM; growth at 0.00517 µM (MDA-MB-231 [13]): 82.2%; growth at 0.41852 µM (MDA-MB-231 [14]): 3.61%; growth at 3.76667 µM (MDA-MB-231 [15]): -11%

More lines, main results first:

EC50 [1] [nM] | IC50 [4] [nM] | SMILES | other results
113 | 40 | CN[C@@H](C)C(=O)N[C@H](C(=O)N[C@H]1CCCN(CCc2ccccc2)C1)C1CCCCC1 | GI50 (MDA-MB-231 [2]): 1010 nM; IC50 [3]: > 8000 nM
 | 500 | CN[C@@H](C)C(=O)N[C@H](C(=O)N[C@H]1CCN(CCc2ccccc2)C1)C1CCCCC1 | 
 | 740 | CN[C@@H](C)C(=O)N[C@H](C(=O)N[C@H]1CCN(CCCc2ccccc2)C1)C1CCCCC1 | 
 | 790 | CN[C@@H](C)C(=O)N[C@H](C(=O)N[C@H]1CCCN(CCCc2ccccc2)C1)C1CCCCC1 | 
 | 80 | CN[C@@H](C)C(=O)N[C@H](C(=O)N[C@H]1CCCCN(CCc2ccccc2)C1)C1CCCCC1 | 
 | 26 | CN[C@@H](C)C(=O)N[C@H](C(=O)N[C@H]1CCCN(CCc2ccccc2)C1)C(C)(C)C | 
 | 5750 | CN[C@@H](C)C(=O)N[C@H](C(=O)N[C@H]1CCCN(S(=O)(=O)c2ccccc2)C1)C(C)(C)C | 
 | 3890 | CN[C@@H](C)C(=O)N[C@H](C(=O)N[C@H]1CCCN(S(=O)(=O)Cc2ccccc2)C1)C(C)(C)C | 
60 | 20 | CN[C@@H](C)C(=O)N[C@H](C(=O)N[C@H]1CCCN(CCc2ccc(F)cc2)C1)C(C)(C)C | 
156 | 50 | CN[C@@H](C)C(=O)N[C@H](C(=O)N[C@H]1CCCN(CCc2ccccc2OC)C1)C(C)(C)C | 
164 | 52 | CN[C@@H](C)C(=O)N[C@H](C(=O)N[C@H]1CCCN(CCc2cccc(OC)c2)C1)C(C)(C)C | 
158 | 90 | CN[C@@H](C)C(=O)N[C@H](C(=O)N[C@H]1CCCN(CCc2ccc(OC)cc2)C1)C(C)(C)C | 
117 | 24 | CN[C@@H](C)C(=O)N[C@H](C(=O)N[C@H]1CCCN(CCc2ccc(Cl)cc2)C1)C(C)(C)C | 
71 | 24 | CN[C@@H](C)C(=O)N[C@H](C(=O)N[C@H]1CCCN(CCc2ccc(Br)cc2)C1)C(C)(C)C | 
60 | 30 | CN[C@@H](C)C(=O)N[C@H](C(=O)N[C@H]1CCCN(CCc2ccc(C)cc2)C1)C(C)(C)C | 
68 | 42 | CN[C@@H](C)C(=O)N[C@H](C(=O)N[C@H]1CCCN(CCc2ccc(O)cc2)C1)C(C)(C)C | 
60 | 32 | CN[C@@H](C)C(=O)N[C@H](C(=O)N[C@H]1CCCN(CCc2ccc([N+](=O)[O-])cc2)C1)C(C)(C)C | 
300 | 49 | CN[C@@H](C)C(=O)N[C@H](C(=O)N[C@H]1CCCN(CCc2ccc(C(F)(F)F)cc2)C1)C(C)(C)C | 
> 370 | 301 | CN[C@@H](C)C(=O)N[C@H](C(=O)N[C@H]1CCCN(CCc2ccccn2)C1)C(C)(C)C | 
> 370 | 593 | CN[C@@H](C)C(=O)N[C@H](C(=O)N[C@H]1CCCN(CCc2ccncc2)C1)C(C)(C)C | 
